Laboratory results as given in ChEMBL document CHEMBL3507680, “University of Dundee, Gates Library screen for HepG2 cell viability”.

Assay: Human HepG2 cell viability assay in 384 well format
Assay type: toxicity, cell-based
Set-up: dose 125 nL, time 70.5 hour; concentration not given beside the values
Conditions: HepG2 cells, read-out: Inhibition

Row | Structure (SMILES) | cytotoxicity at 70.5 h [%]
1 | CN(C(=O)c1cccc(C#N)c1)c1nnc(C2CCOC2)s1 (configuration not stated) | -7.42
2 | Cc1ccc(N2CCCc3sc(C(=O)NCc4ccncc4)nc32)nn1 | -1.89
3 | O=c1[nH]c(-c2ccncc2)ncc1-c1ccnc(N2CCOCC2)n1 | -2.39
4 | O=C(NCCc1ccncc1)[C@H]1CC[C@@H]2[C@@H](CCN2CC2CC2)O1 | -10.8
5 | Cc1[nH]c(=O)[nH]c(=O)c1CC(=O)N1CCCN(CC2CC2)C(C(C)C)C1 (configuration not stated) | 0.527
6 | CC1CCCN(C(=O)CCNS(=O)(=O)c2cccnc2)C1 (configuration not stated) | 1.82
7 | CN(C)C(=O)CN1CCC2(CCN(CC3CC3)CC2)C1=O | 9.87
8 | COc1ccc(CC(=O)N2CCN(Cc3ccco3)C[C@H]2C)cc1OC | -5.07
9 | CN(Cc1ccccc1)C(=O)CN1CCOC(Cn2cncn2)C1 (configuration not stated) | -6.53
10 | CCO[C@H]1CO[C@@]2(CCCN(Cc3scnc3C)C2)C1 | 14.7
11 | CC/C=C(\C)CN1CCC(CNC(=O)c2c[nH]c(=O)c(Cl)c2)C1 (configuration not stated) | 12.8
12 | CC(=O)NC1CCN(C(=O)Nc2cccc(C(F)(F)F)c2)CC1 | 20.6
13 | Cc1cc(C(=O)N2CCOC(c3ccc(Cl)c(Cl)c3)C2)[nH]n1 (configuration not stated) | -8.67
14 | CN(C)C(C(=O)N1CCSCC1)c1ccccc1F (configuration not stated) | -5.06
15 | COCCNC(=O)NCc1cc(-c2cccs2)n(C2CCCC2)n1 | -8.68
16 | Cc1cc(NC(C)Cc2cccnc2)n2nccc2n1 (configuration not stated) | -12
17 | CC(C)(C)C(=O)Cn1nc(C2CC2)cc(C(F)(F)F)c1=O | -0.663
18 | Cc1nc2cc(C(=O)N(CCC#N)CCC#N)ccc2n1C | -6.33
19 | CCN(Cc1cccs1)S(=O)(=O)N(C)C(C)C | -18.1
20 | Cc1cnn(CC2CN(Cc3csc(C(C)C)n3)CCO2)c1 (configuration not stated) | 20.8
21 | CN(C)CCN1C(=O)CC[C@@H]2[C@H]1CCN2C(=O)c1ccc(C#N)cc1 | -7.83
22 | CNC(=O)c1cccc(CNC(=O)C2CC(=O)N(CCN(C)C)C2)c1 (configuration not stated) | -5.17
23 | COC[C@@]12CCC[C@@H]1CN(C(=O)N1CCCC1)C2 | -6.53

Row | Structure (SMILES) | cytotoxicity at 70.5 h [%]
24 | CCOc1ccc(C(=O)NCc2ccnc(N3CCCC3)c2)cn1 | -6.13
25 | CS(=O)(=O)CCN1C[C@H](NC(=O)c2cnc(O)cn2)[C@@H](C2CC2)C1 | 11.1
26 | CC(C)CS(=O)(=O)N1CCC2(CN(c3ccsc3)C(=O)CN2C)C1 (configuration not stated) | -111
27 | CCc1cnccc1C(=O)Nc1ccc(C(N)=O)nc1 | -4.18
28 | CC(C)c1n[nH]c(C2CN(C(=O)C3=COCC3)CCO2)n1 (configuration not stated) | -3.87
29 | Cc1noc(C)c1CCC(=O)N[C@@H]1CC[C@@H](Oc2cccnc2)[C@@H]1O | -3.66
30 | CCN(CC)CC[C@H]1CN(C(=O)c2ccc(F)cc2)CC[C@H]1CC(=O)O | -2.08
31 | COC(=O)c1ccc(Cl)c(CN(C)Cc2ncnn2C)c1 | 1.01
32 | Cc1ccc(CNC(=O)CN2CCOC(Cn3cncn3)C2)s1 (configuration not stated) | -2.32
33 | CC(=O)Nc1nc(CN2CCn3c(nnc3C3CC3)C2)cs1 | -7.7
34 | Cc1cc(C)n(CC(C)Nc2nc(C)nc3c2CCNC3)n1 (configuration not stated) | -8.55
35 | CCN1CCN(C(=O)Cn2nc(C(F)(F)F)c(Br)c2C2CC2)CC1 | -7.97
36 | Cc1ncsc1CN(Cc1ccccc1)Cc1ncc[nH]1 | 17.5
37 | CNC(=O)CN1CCC(OCC2CCCO2)CC1 (configuration not stated) | -8.23
38 | CC(C)N(Cc1ccccc1)C(=O)c1cc(C2CCCN2C)ccn1 (configuration not stated) | -6.6
39 | Cc1cc(C)c(C#N)c(N2CCC(Cc3ccccc3)CC2)n1 | -2.18
40 | CCc1nsc(NC2CCCn3nc(CC)nc32)n1 (configuration not stated) | -5.19
41 | CCN1C(=O)CCCC12CCCN(C(=O)c1conc1C)C2 (configuration not stated) | -12.9
42 | Cc1ccc(OCCN(C)C(=O)NC(C)c2nncn2C)cc1 (configuration not stated) | -5.04
43 | CN(c1ccccc1)c1ccc(CC2CCCN(CCO)C2)nn1 (configuration not stated) | 30.2
44 | CC(C)c1nn(C)c(N(C)C)c1CNCc1ccc(CO)c(F)c1 | 1.57
45 | COC(=O)c1cc(CN2CCN(c3nc(C)cnc3C)CC2)ccc1O | -1.95
46 | c1ccc(Cc2noc(CN3CCCC3C3CCCCC3)n2)cc1 (configuration not stated) | 16.5

Row | Structure (SMILES) | cytotoxicity at 70.5 h [%]
47 | O=C(O)CN(Cc1ccsc1)CC1CCCO1 (configuration not stated) | -2.27
48 | CC(C)N(C)CCCNC(=O)c1cnc(-c2ccccc2)nc1 | 2.52
49 | CCc1ncc2c(n1)CN(Cc1nc(-c3ccccn3)no1)CC2 | 33.7
50 | O=C(NCC[S+]([O-])Cc1ccccc1)c1ccc2[nH]c(=O)[nH]c2c1 (configuration not stated) | -3.54
51 | CC(C)(C)c1n[nH]c(C2CN(Cc3nnc(C4CC4)o3)CCO2)n1 (configuration not stated) | -6.03
52 | Cc1n[nH]c(=O)c2c(NC(=O)CN3CCC(C)CC3)oc(C)c12 | -10.7
53 | N#CCCCn1nnnc1Cc1ccc(Br)cc1 | -13.9
54 | Cc1cc(CNC(=O)[C@H]2CCCCN2C(=O)OC(C)(C)C)on1 | -1.11
55 | CC(C)N1CCN(C(=O)c2[nH]nnc2Nc2ccccc2F)CC1 | 16.4
56 | CCOC(=O)c1cn(CC(O)c2ccccc2OC)nn1 (configuration not stated) | 7.58
57 | CNc1ncc(C(=O)N2CCOC(C(=O)NC3CCCC3)C2)cn1 (configuration not stated) | -9.73
58 | Cc1ccsc1C(=O)N1CC[C@@H](N(C)C)[C@@H]1Cc1cnn(C)c1 | -11.2
59 | Cc1ccc(NC2CCN(C(=O)c3cccc4cccnc34)CC2)nn1 | -6.15
60 | CNC(=O)CC1CC2(CCN(S(C)(=O)=O)CC2)c2ccccc21 (configuration not stated) | -0.621
61 | Cc1cc(C(=O)NS(=O)(=O)Cc2ccon2)c(C)o1 | -3.93
62 | CN(Cc1cnn(C)c1)C(=O)c1ccc(=O)n(C)n1 | -1.81
63 | O=C(Cc1csc(-c2ccco2)n1)N1CCSCC1 | -11.7
64 | Cc1nc(CN2CCN(C(C)c3nc(C4CC4)no3)CC2)oc1C (configuration not stated) | -3.6
65 | COc1ccc(N2CCN(C(=O)CCn3nccc3C)C(C)C2)cc1 (configuration not stated) | -3.13
66 | CCC(O)CN1CCN(C(=O)c2cccc(CC#N)c2)CC1 (configuration not stated) | 1.07
67 | CC[C@@H]1N(CC2CC2)CCC[C@]12CCC(=O)N2CCOC | -9.87
68 | CCn1nccc1CNc1nc(N)nc2c1nc(C)n2C | 6.56
69 | Cc1ccc2c(c1)C1(CCNCC1)CC2N1CCOCC1 (configuration not stated) | 1.67

Row | Structure (SMILES) | cytotoxicity at 70.5 h [%]
70 | CCOc1cc(C(=O)N2CCCC(c3cc(C(N)=O)[nH]n3)C2)ccn1 (configuration not stated) | -7.42
71 | CCOC(C)C(=O)NS(=O)(=O)c1cccc2cc(C)cnc12 (configuration not stated) | 1.55
72 | Cc1cc(-c2cnc(N3CCOCC3)nc2-c2cccnc2C)on1 | -4.33
73 | CCCC(=O)Nc1ccc(CC(=O)N(C)CCc2cn[nH]c2)cc1 | -7.4
74 | CCC1CN(C(=O)c2ccc(O)cn2)CCC(=O)N1Cc1ccccc1 (configuration not stated) | -3.56
75 | O=C1NCCCC1NC(=O)C1(c2cccc(Cl)c2)CCC1 (configuration not stated) | -0.27
76 | COc1cccc(-c2noc(-c3ccc(NCC(C)C)nc3)n2)c1OC | -2.74
77 | CC(C)CC(=O)N1CCCC1c1ccsc1 (configuration not stated) | -10.6
78 | Cc1ccsc1[C@@H]1CCN(C(=O)CCC(=O)c2ccccc2)C[C@H]1O | -9.94
79 | Cc1nnc(NC(=O)NCc2ccc(N3CCNC(=O)C3)cc2)s1 | -3.76
80 | CCCc1n[nH]c(C2CN(CCc3cccs3)CCO2)n1 (configuration not stated) | -3.81
81 | O=C(C1CC=CC1)N1CCc2ncnc(-c3ccncc3)c2CC1 | 0.995
82 | O=C(c1ccccc1F)N1CC[C@@H]2CN(c3ncccn3)CCO[C@@H]2C1 | 4.95
83 | NC(=O)c1cc2c(nc1CC1CCCCO1)CCC2 (configuration not stated) | -2.08
84 | CN(C)CC(C)(C)Cn1cnc(-c2ccccc2)c1-c1ncc[nH]1 | 11.7
85 | Cc1nc(NC(=O)CCN2C(=O)c3ccccc3NC2C(C)C)sc1C (configuration not stated) | -0.712
86 | CC(=O)N1CCCC1CCc1ccnc(-c2cncnc2)c1 (configuration not stated) | -2.53
87 | O=S(=O)(N1CCCC1)N(Cc1ccccc1)CC1CCCO1 (configuration not stated) | -7.82
88 | O=C(NCC1CC1)[C@@H]1CCO[C@@H]2CCN(c3ncccn3)C[C@@H]21 | -3.18
89 | O=C(C1CCCCC1)N1CCO[C@@H]2CNC[C@@H]21 | -2.15
90 | CC(=O)N1CCCN(C(=O)NC(C)c2ccc(C)o2)CC1 (configuration not stated) | 1.15
91 | Cc1nc(CN2CCC3(CCCN(Cc4ccoc4)C3)C2=O)cs1 (configuration not stated) | 11.4
92 | COc1c(-c2ccc(O)cc2)oc2cc(O)cc(O)c2c1=O [ISOKAEMPFERIDE] | -8.89

Row | Structure (SMILES) | cytotoxicity at 70.5 h [%]
93 | Cc1cnn(C2CN(Cc3nnc(-c4ccccc4Cl)o3)C2)c1 | 5.37
94 | CCN(CC)S(=O)(=O)N1CCCN(CC(=O)NC(C)C)CC1 | 6.63
95 | Cc1ccc(C(=O)N2CCCC(c3[nH]ncc3S(C)(=O)=O)C2)s1 (configuration not stated) | 10.6
96 | CN1CCN(C)C2(CCN(Cc3ccc(C4CCCCO4)o3)CC2)C1 (configuration not stated) | -1.75
97 | COc1cc(/C=C/c2ncc(C(=O)O)s2)cc(Cl)c1OC | 18.2
98 | Cc1nc(-c2ccncc2)ncc1C(C)NC(=O)CN1CCOC1=O (configuration not stated) | -5.31
99 | CCCc1cc(=O)[nH]c(-c2ccccc2CN(C)CCn2cccn2)n1 | 5.03
100 | Cc1ccc(N2CCC(C3CCN(CC(C)C)CC3)C2)nn1 (configuration not stated) | -6.28
101 | O=C(c1ccncc1)N1CCCC1c1cccc(Br)c1 (configuration not stated) | 21.6
102 | CC(O)c1cn(Cc2ccccc2)nn1 (configuration not stated) | -6.51
103 | O=C(c1ccccc1)N1C[C@@H]2CCCO[C@@H]2[C@H](N2CCCC2)C1 | -4.22
104 | N#Cc1cccc(NC(=O)N(CC(F)F)C2CC2)c1 | -2.73
105 | CCCC(C)C(=O)Nc1ccc(OC)nc1N1CCN(C(C)=O)CC1 (configuration not stated) | -6.89
106 | O=C(c1ccccc1F)N1CC(c2nc(C3CC3)no2)C1 | -11.5
107 | Cc1nn(C)c(Cl)c1C1CCCN1C(=O)c1ccc(O)nc1 (configuration not stated) | 23.1
108 | CNc1cc(C2CCCN2C(=O)c2ccc3oc(=O)n(C)c3c2)ccn1 (configuration not stated) | -12.4
109 | Cc1nccn1-c1cccc(C2CCCN(C(=O)c3cc[nH]n3)C2)n1 (configuration not stated) | 24.4
110 | CN(Cc1ccco1)C(=O)CN1CCCC1Cn1cccn1 (configuration not stated) | -3.69
111 | Cc1ccc(C(C(=O)O)N(C)CCN2CCOCC2)c(F)c1 (configuration not stated) | -9.66
112 | Cn1nc2c(cc1=O)CN(Cc1nnc(-c3ccco3)o1)CC2 | -3.38
